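Here, GI50 denotes the concentration required for 50% inhibition of growth. The concentration for full growth arrest is given as TGI.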
Assays:
Assay in all cases: growth of human tumour cells (NCI), 384-well format
[1] = tested on: 786-0 renal
[2] = tested on: A498 renal
[3] = tested on: A549 NSCLC
[4] = tested on: ACHN renal
[5] = tested on: BT-549 breast
[6] = tested on: CAKI-1 renal
[7] = tested on: CCRF-CEM leukemia
[8] = tested on: COLO 205 colon
[9] = tested on: DU-145 prostate
[10] = tested on: EKVX NSCLC
[11] = tested on: HCC-2998 colon
[12] = tested on: HCT-116 colon
[13] = tested on: HCT-15 colon
[14] = tested on: HL-60(TB) leukemia
[15] = tested on: HOP-62 NSCLC
[16] = tested on: HOP-92 NSCLC
[17] = tested on: HS 578T breast
[18] = tested on: HT29 colon
[19] = tested on: IGROV1 ovarian
[20] = tested on: K-562 leukemia
[21] = tested on: KM12 colon
[22] = tested on: LOX IMVI melanoma
[23] = tested on: M14 melanoma
[24] = tested on: MALME-3M melanoma
[25] = tested on: MCF7 breast
[26] = tested on: MDA-MB-231 breast
[27] = tested on: MDA-MB-435 melanoma
[28] = tested on: MDA-MB-468 breast
[29] = tested on: MOLT-4 leukemia
[30] = tested on: NCI-H226 lung
[31] = tested on: NCI-H23 lung
[32] = tested on: NCI-H322M lung
[33] = tested on: NCI-H460 NSCLC
[34] = tested on: NCI-H522 lung
[35] = tested on: NCI/ADR-RES ovarian
[36] = tested on: OVCAR-3 ovarian
[37] = tested on: OVCAR-4 ovarian
[38] = tested on: OVCAR-5 ovarian
[39] = tested on: OVCAR-8 ovarian
[40] = tested on: PC-3 prostate
[41] = tested on: RPMI-8226 leukemia
[42] = tested on: RXF 393 renal
[43] = tested on: SF-268 CNS
[44] = tested on: SF-295 CNS
[45] = tested on: SF-539 CNS
[46] = tested on: SK-MEL-2 melanoma
[47] = tested on: SK-MEL-28 melanoma
[48] = tested on: SK-MEL-5 melanoma
[49] = tested on: SK-OV-3 ovarian
[50] = tested on: SN12C renal
[51] = tested on: SNB-19 CNS
[52] = tested on: SNB-75 CNS
[53] = tested on: SW-620 colon
[54] = tested on: T-47D breast
[55] = tested on: TK-10 renal
[56] = tested on: U251 glioblastoma
[57] = tested on: UACC-257 melanoma
[58] = tested on: UACC-62 melanoma
[59] = tested on: UO-31 renal

What does the source list for `Nc1ncnc2c1c(-c1cccc(OCc3ccccc3)c1)cn2C1CC(CN2CCCC2)C1` (stereo not drawn)?
GI50 [1]: 1690 nM; TGI [1]: 3.08 µM; GI50 [2]: 1730 nM; TGI [2]: 3.3 µM; GI50 [3]: 1670 nM; TGI [3]: 3.41 µM; GI50 [4]: 2040 nM; TGI [4]: 4.45 µM; GI50 [5]: 1550 nM; TGI [5]: 2980 nM; GI50 [6]: 1660 nM; TGI [6]: 3.22 µM; GI50 [7]: 1850 nM; TGI [7]: 3.26 µM; GI50 [8]: 442 nM; TGI [8]: 1640 nM; GI50 [9]: 3.02 µM; TGI [9]: 11.9 µM; GI50 [10]: 1360 nM; TGI [10]: 3.74 µM; GI50 [11]: 1290 nM; TGI [11]: 2630 nM; GI50 [12]: 1560 nM; TGI [12]: 2990 nM; GI50 [13]: 1570 nM; TGI [13]: 3.28 µM; GI50 [14]: 324 nM; TGI [14]: 1050 nM; GI50 [15]: 1870 nM; TGI [15]: 3.49 µM; GI50 [16]: 1460 nM; TGI [16]: 2820 nM; GI50 [17]: 1580 nM; TGI [17]: 2950 nM; GI50 [18]: 769 nM; TGI [18]: 2060 nM; GI50 [19]: 3.46 µM; TGI [19]: 12.3 µM; GI50 [20]: 1560 nM; TGI [20]: 2950 nM; GI50 [21]: 1910 nM; TGI [21]: 4.16 µM; GI50 [22]: 1670 nM; TGI [22]: 3.05 µM; GI50 [23]: 1400 nM; TGI [23]: 2720 nM; GI50 [24]: 1250 nM; TGI [24]: 2520 nM; GI50 [25]: 353 nM; TGI [25]: 1690 nM; GI50 [26]: 2050 nM; TGI [26]: 4.56 µM; GI50 [27]: 1490 nM; TGI [27]: 2840 nM; GI50 [28]: 1520 nM; TGI [28]: 2970 nM; GI50 [29]: 1780 nM; TGI [29]: 3.17 µM; GI50 [30]: 1470 nM; TGI [30]: 4.31 µM; GI50 [31]: 1380 nM; TGI [31]: 3.56 µM; GI50 [32]: 1860 nM; TGI [32]: 4.94 µM; GI50 [33]: 1320 nM; TGI [33]: 2750 nM; GI50 [34]: 1900 nM; TGI [34]: 3.5 µM; GI50 [35]: 2290 nM; TGI [35]: 6.64 µM; GI50 [36]: 1740 nM; TGI [36]: 3.43 µM; GI50 [37]: 2030 nM; TGI [37]: 5.18 µM; GI50 [38]: 1520 nM; TGI [38]: 3.81 µM; GI50 [39]: 1790 nM; TGI [39]: 3.51 µM; GI50 [40]: 1780 nM; TGI [40]: 3.51 µM; GI50 [41]: 1720 nM; TGI [41]: 3.11 µM; GI50 [42]: 1480 nM; TGI [42]: 2830 nM; GI50 [43]: 1760 nM; TGI [43]: 3.19 µM; GI50 [44]: 1760 nM; TGI [44]: 3.22 µM; GI50 [45]: 1800 nM; TGI [45]: 3.21 µM; GI50 [46]: 1060 nM; TGI [46]: 2260 nM; GI50 [47]: 1570 nM; TGI [47]: 2920 nM; GI50 [48]: 1200 nM; TGI [48]: 2450 nM; GI50 [49]: 1740 nM; TGI [49]: 3.29 µM; GI50 [50]: 1770 nM; TGI [50]: 3.42 µM; GI50 [51]: 3000 nM; TGI [51]: 8.69 µM; GI50 [52]: 1900 nM; TGI [52]: 3.34 µM; GI50 [53]: 1410 nM; TGI [53]: 2960 nM; GI50 [54]: 1540 nM; TGI [54]: 3.04 µM; GI50 [55]: 1600 nM; TGI [55]: 3.17 µM; GI50 [56]: 1890 nM; TGI [56]: 3.38 µM; GI50 [57]: 1480 nM; TGI [57]: 2810 nM; GI50 [58]: 1690 nM; TGI [58]: 3.07 µM; GI50 [59]: 1520 nM; TGI [59]: 2880 nM

From PubChem BioAssay (NCI)
